In assay [1] the test system is Pythium. Description: Fungitoxic activity against Pythium sp. assessed as mycelial growth inhibition at 10 ppm after 4 to 5 days by agar dilution method. Particulars: read-out: GI. (In general: Agar dilution tests growth on a series of plates holding different concentrations.)
Assay [2] relates to Athelia rolfsii. The assay can be described thus: Fungitoxic activity against Athelia rolfsii assessed as mycelial growth inhibition at 10 ppm after 4 to 5 days by agar dilution method. Format: functional. The note with it: Agroathelia rolfsii; read-out: GI.
Assay [3] deals with Athelia rolfsii. The assay can be described thus: microbe, parasite or virus in culture. The assay is classed as functional. Particulars: Agroathelia rolfsii, read-out: GI.
Description: Fungitoxic activity against Athelia rolfsii assessed as mycelial growth inhibition at 100 ppm after 4 to 5 days by agar dilution method
Assay [4] concerns Brassica rapa subsp. chinensis. The assay can be described thus: whole plant or invertebrate. Particulars: 72 h, read-out: GI. The assay is classed as functional.
Description: Phytotoxicity against Brassica rapa subsp. chinensis assessed as growth inhibition of hypocotyl at 100 ppm treated to seeds after 3 days
Assay [5] concerns Pythium. The assay can be described thus: microbe, parasite or virus in culture. The assay is classed as functional. The note with it: read-out: GI.
Description: Fungitoxic activity against Pythium sp. assessed as mycelial growth inhibition at 100 ppm after 4 to 5 days by agar dilution method
Assay [6] concerns Brassica rapa subsp. chinensis. The assay can be described thus: whole plant or invertebrate. Format: functional. Particulars: 72 h, read-out: GI. This is another data set of the same source.
Description: Phytotoxicity against Brassica rapa subsp. chinensis assessed as growth inhibition of radicle at 100 ppm treated to seeds after 3 days

Structures are written as SMILES.

On to `COC(=O)/C=C/c1ccc(Cl)cc1` [METHYL 3-(4-CHLOROPHENYL)ACRYLATE], for which the inhibition of growth at 10 ppm in assay [1] came to 19%; in assay [2] it was 52%. The inhibition of growth at 100 ppm worked out at 94% in assay [3], 84% in assay [4], 99% in assay [5] and 93% in assay [6].
`C=CCNC(=O)/C=C/c1ccccc1`: the inhibition of growth at 10 ppm was determined as 20% in assay [1] and 6% in assay [2]. The inhibition of growth at 100 ppm in assay [3] turned out to be 90%; in assay [4], 63%; in assay [5] it was 52%; in assay [6] it was 64%.
As for `CCCCCOC(=O)/C=C/c1ccc(Cl)cc1Cl` [PENTYL 3-(2,4-DICHLOROPHENYL)ACRYLATE], the inhibition of growth at 10 ppm in assay [1] was determined as 9%; in assay [2], 14%. The inhibition of growth at 100 ppm in assay [3] was found to be 75%; in assay [4] it was 22%; in assay [5], 43%; in assay [6] it was 0%.
With `CCCOC(=O)/C=C/c1ccc(Cl)cc1` [PROPYL 3-(4-CHLOROPHENYL)ACRYLATE], the inhibition of growth at 10 ppm was 8% in assay [1] and 41% in assay [2]. Also, the inhibition of growth at 100 ppm in assay [3] was found to be 97%; in assay [4], 40%; in assay [5], 87%; in assay [6] it was 78%.
As to `CCC(C)OC(=O)/C=C/c1ccccc1` (centres undefined) [SEC-BUTYL CINNAMATE], the inhibition of growth at 10 ppm in assay [1] was 21%; in assay [2], 40%. The inhibition of growth at 100 ppm in assay [3] is 70%; in assay [4], 18%; in assay [5] it was 69%; in assay [6] it was 20%.
Turning to `CC(C)c1ccc(/C=C/C(=O)OCCc2ccccc2)cc1` [PHENETHYL 3-(4-ISOPROPYLPHENYL)ACRYLATE], the inhibition of growth at 10 ppm in assay [1] was 13%; in assay [2], 10%. The inhibition of growth at 100 ppm in assay [3] stood at 70%; in assay [4], 36%; in assay [5], 49%; in assay [6] it was 0%.
Regarding `O=C(/C=C/c1ccc(Cl)cc1)OCCOc1ccccc1`, the inhibition of growth at 10 ppm in assay [1] was 9%; in assay [2], 16%. Besides, the inhibition of growth at 100 ppm in assay [3] was found to be 83%; in assay [4] it was 30%; in assay [5], 54%; in assay [6] it was 0%.
In the case of `COC(=O)/C=C/c1ccc(C(C)C)cc1`, the inhibition of growth at 10 ppm amounted to 7% in assay [1] and 35% in assay [2]. For the same compound, the inhibition of growth at 100 ppm in assay [3] was 97%; in assay [4], 38%; in assay [5], 82%; in assay [6] it was 21%.
For the compound `CC(C)CNC(=O)/C=C/c1ccc(C(C)C)cc1` [N-ISOBUTYL-3-(4-ISOPROPYLPHENYL)ACRYLAMIDE], the figures for the inhibition of growth at 10 ppm in assay [1] and in assay [2] were 42% and 37%, respectively. The inhibition of growth at 100 ppm in assay [3] was 42%; in assay [4], 34%; in assay [5], 58%; in assay [6], 45%.
Consider `CC(C)OC(=O)/C=C/c1ccc(Cl)cc1Cl` [ISOPROPYL 3-(2,4-DICHLOROPHENYL)ACRYLATE], for which the inhibition of growth at 10 ppm in assay [1] was 20%; in assay [2], 50%. Also, the inhibition of growth at 100 ppm in assay [3] was 93%; in assay [4], 42%; in assay [5] it was 71%; in assay [6], 54%.
On to `CCCOC/C(=N\c1ccc(Cl)cc1C(F)(F)F)n1ccnc1` [TRIFLUMIZOLE], for which the inhibition of growth at 10 ppm came out at 71% in assay [1] and 64% in assay [2]. In addition, the values for the inhibition of growth at 100 ppm in assay [3] and in assay [5] were 100% and 94%, respectively.
As to `CCCNC(=O)/C=C/c1ccc(C(C)C)cc1`, the figures for the inhibition of growth at 10 ppm in assay [1] and in assay [2] were 41% and 28%, respectively. Moreover, the inhibition of growth at 100 ppm in assay [3] stood at 88%; in assay [4], 30%; in assay [5], 84%; in assay [6] it was 52%.
In the case of `COC(=O)/C=C/c1ccc(Cl)cc1Cl` [METHYL 3-(2,4-DICHLOROPHENYL)ACRYLATE], the inhibition of growth at 10 ppm amounted to 39% in assay [1] and 43% in assay [2]. Besides, the inhibition of growth at 100 ppm in assay [3] came to 75%; in assay [4], 66%; in assay [5], 68%; in assay [6], 84%.
As to `CCCOC(=O)/C=C/c1ccccc1` [PROPYL CINNAMATE], the inhibition of growth at 10 ppm in assay [1] turned out to be 18%; in assay [2], 40%. For the same compound, the inhibition of growth at 100 ppm in assay [3] was found to be 86%; in assay [4] it was 31%; in assay [5] it was 95%; in assay [6], 7%.
For `CCCOC(=O)/C=C/c1ccc(C(C)C)cc1` [PROPYL 3-(4-ISOPROPYLPHENYL)ACRYLATE], the inhibition of growth at 10 ppm worked out at 13% in assay [1] and 43% in assay [2]. The inhibition of growth at 100 ppm came out at 89% in assay [3], 8% in assay [4], 68% in assay [5] and 5% in assay [6].
With `CC(C)NC(=O)/C=C/c1ccccc1` [N-ISOPROPYLCINNAMAMIDE], the inhibition of growth at 10 ppm in assay [1] was 0%; in assay [2], 17%. Moreover, the inhibition of growth at 100 ppm in assay [3] was found to be 96%; in assay [4] it was 39%; in assay [5] it was 47%; in assay [6], 76%.
As to `CCCOC(=O)/C=C/c1ccc(Cl)cc1Cl` [PROPYL 3-(2,4-DICHLOROPHENYL)ACRYLATE], the inhibition of growth at 10 ppm was 14% in assay [1] and 32% in assay [2]. The inhibition of growth at 100 ppm was 84% in assay [3], 41% in assay [4], 77% in assay [5] and 79% in assay [6].
For the compound `CCOC(=O)/C=C/c1ccc(C(C)C)cc1` [ETHYL 3-(4-ISOPROPYLPHENYL)ACRYLATE], the inhibition of growth at 10 ppm in assay [1] is 14%; in assay [2] it was 24%. Besides, the inhibition of growth at 100 ppm is 78% in assay [3], 44% in assay [4], 92% in assay [5] and 0% in assay [6].
On to `O=C(/C=C/c1ccc(Cl)cc1)OCCc1ccccc1` [PHENETHYL 3-(4-CHLOROPHENYL)ACRYLATE], for which the inhibition of growth at 10 ppm worked out at 13% in assay [1] and 9% in assay [2]. Also, the inhibition of growth at 100 ppm in assay [3] was 84%; in assay [4], 36%; in assay [5], 60%; in assay [6], 31%.
With `CCc1cccc(NC(=O)/C=C/c2ccccc2)c1`, the values for the inhibition of growth at 10 ppm in assay [1] and in assay [2] were 31% and 35%, respectively. Besides, the inhibition of growth at 100 ppm came to 53% in assay [3], 2% in assay [4], 74% in assay [5] and 66% in assay [6].
`CC(C)=CCC/C(C)=C/COC(=O)/C=C/c1ccc(Cl)cc1`: the inhibition of growth at 10 ppm in assay [1] came to 9%; in assay [2], 17%. In addition, the inhibition of growth at 100 ppm in assay [3] came out at 94%; in assay [4], 41%; in assay [5] it was 86%; in assay [6] it was 48%.
On to `CC(C)=CCC/C(C)=C/COC(=O)/C=C/c1ccc(C(C)C)cc1`, for which the inhibition of growth at 10 ppm was determined as 8% in assay [1] and 21% in assay [2]. Also, the inhibition of growth at 100 ppm turned out to be 88% in assay [3], 30% in assay [4], 72% in assay [5] and 0% in assay [6].
Take `CC(C)OP(=O)(OC(C)C)SCc1ccccc1` [IPROBENFOS]: the values for the inhibition of growth at 10 ppm in assay [1] and in assay [2] were 42% and 69%, respectively. Further, the inhibition of growth at 100 ppm came to 100% in assay [3] and 89% in assay [5].
For the compound `CC(C)c1ccc(/C=C/C(=O)NC(C)(C)C)cc1` [N-TERT-BUTYL-3-(4-ISOPROPYLPHENYL)ACRYLAMIDE], in assay [1], the inhibition of growth at 10 ppm was found to be 45%. Also, the inhibition of growth at 100 ppm in assay [3] turned out to be 31%; in assay [4] it was 7%; in assay [5], 62%; in assay [6] it was 43%.
Turning to `CC(C)(C)NC(=O)/C=C/c1ccc(Cl)cc1` [N-TERT-BUTYL-3-(4-CHLOROPHENYL)ACRYLAMIDE], the inhibition of growth at 10 ppm in assay [2] amounted to 60%. The inhibition of growth at 100 ppm in assay [3] is 71%; in assay [4], 29%; in assay [5], 21%; in assay [6], 55%.
Take `Cc1ccccc1NC(=O)/C=C/c1ccccc1` [N-O-TOLYLCINNAMAMIDE]: the inhibition of growth at 10 ppm in assay [1] was 18%. The inhibition of growth at 100 ppm in assay [3] was found to be 49%; in assay [4], 9%; in assay [5], 52%; in assay [6] it was 39%.
For `Cc1ccc(OC(=O)/C=C/c2ccc(Cl)cc2Cl)c(C(C)C)c1`, the inhibition of growth at 10 ppm in assay [2] came to 21%. Further, the inhibition of growth at 100 ppm in assay [3] is 67%; in assay [4], 32%; in assay [5] it was 15%; in assay [6] it was 0%.

Values taken from ChEMBL document CHEMBL3046649, “Fungitoxic and Phytotoxic Activities of Cinnamic Acid Esters and Amides” (2000).
